The target of experiment [1] is T1, γ-glutamyl kinase Pro1 (GK) (Saccharomyces cerevisiae, UniProt P32264).
T1 sequence (P32264 1-428): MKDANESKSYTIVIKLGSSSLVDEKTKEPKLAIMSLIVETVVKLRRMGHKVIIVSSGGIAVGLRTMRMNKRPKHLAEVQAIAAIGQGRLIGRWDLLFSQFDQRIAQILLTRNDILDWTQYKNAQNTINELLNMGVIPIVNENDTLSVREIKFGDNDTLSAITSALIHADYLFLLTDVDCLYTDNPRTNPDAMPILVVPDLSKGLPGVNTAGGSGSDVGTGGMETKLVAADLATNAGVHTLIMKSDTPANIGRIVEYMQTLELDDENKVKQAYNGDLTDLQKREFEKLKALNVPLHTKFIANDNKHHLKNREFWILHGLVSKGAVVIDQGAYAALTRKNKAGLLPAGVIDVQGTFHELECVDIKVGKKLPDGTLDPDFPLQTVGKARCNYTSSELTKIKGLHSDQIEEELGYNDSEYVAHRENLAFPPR
Briefly: PK/LDH-coupled ADP assay, NADH at […] nm. It counts as biochemical. Details: full-length ORF in pET15b (NdeI/XhoI), His-tag, E. coli BL21(DE3), Ni Sepharose; tag removal not mentioned. The note with it: 400 mM sodium glutamate, 5 mM ATP, 10 mM MgCl2, 100 mM HEPES-NaOH pH 7.4, 30 °C; no proline.

Experiment [2] addresses T1, γ-glutamyl kinase Pro1 (GK). The note with it: 400 mM sodium glutamate, 5 mM ATP, 10 mM MgCl2, 100 mM HEPES-NaOH pH 7.4, 30 °C; allosteric feedback inhibition.
The target in experiment [3] is γ-glutamyl kinase Pro1 (GK) (Saccharomyces cerevisiae, UniProt P32264, I150T). Briefly: biochemical. To be noted: read-out: relative activity at 100 mM proline.
γ-glutamyl kinase Pro1 (GK) (Saccharomyces cerevisiae, UniProt P32264, I150T), sequence (P32264 whole entry I150T): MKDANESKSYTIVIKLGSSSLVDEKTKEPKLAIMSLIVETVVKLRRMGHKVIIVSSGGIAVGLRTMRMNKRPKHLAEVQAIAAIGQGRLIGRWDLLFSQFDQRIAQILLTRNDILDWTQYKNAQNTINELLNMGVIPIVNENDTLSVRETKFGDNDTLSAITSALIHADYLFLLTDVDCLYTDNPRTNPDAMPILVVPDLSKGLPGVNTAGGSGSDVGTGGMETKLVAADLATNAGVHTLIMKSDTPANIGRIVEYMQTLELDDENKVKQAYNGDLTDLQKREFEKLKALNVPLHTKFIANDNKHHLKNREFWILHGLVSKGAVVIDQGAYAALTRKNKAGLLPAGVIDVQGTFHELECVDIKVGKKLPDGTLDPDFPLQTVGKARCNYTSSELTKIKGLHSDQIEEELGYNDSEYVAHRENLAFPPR
Experiment [4] deals with γ-glutamyl kinase Pro1 (GK) (Saccharomyces cerevisiae, UniProt P32264, Q79H). Briefly: biochemical. The note with it: read-out: relative activity at 100 mM proline.
γ-glutamyl kinase Pro1 (GK) (Saccharomyces cerevisiae, UniProt P32264, Q79H), sequence (P32264 whole entry Q79H): as the sequence (P32264 whole entry I150T) above, with Q79H, T150I counted along it

As to `N[C@@H](CCC(=O)O)C(=O)O` [glutamate], the “PK/LDH-coupled ADP assay, NADH at 340 nm” value in experiment [1] is listed as “the reaction was initiated by the addition of sodium glutamate”. Take `Nc1ncnc2c1ncn2[C@@H]1O[C@H](COP(=O)(O)OP(=O)(O)OP(=O)(O)O)[C@@H](O)[C@H]1O` [ATP]: the “PK/LDH-coupled ADP assay, NADH at 340 nm” value in experiment [1] is on record as “GK activity was measured by the production of ADP in an enzyme-coupled system”. As to `O=C(O)[C@@H]1CCCN1` [proline], the “relative activity with 0-5 mM proline” value in experiment [2] is recorded as “in the presence of proline, the GK activity of WT was markedly inhibited”. In addition, the activity at 100000 µM in experiment [3] came to 59%; in experiment [4], 96%.

These data come from PMC7658068, “Effects of a novel variant of the yeast γ-glutamyl kinase Pro1 on its enzymatic activity and sake brewing” (Journal of Industrial Microbiology & Biotechnology, 2020).
